System: urinary nitrogen excretion
Test: Phase I double-blind, placebo-controlled, multiple dose evaluation of test compound in calorically restricted, obese men and women
Format: in vivo, human
Conditions: obese subjects on caloric-restricted diet, 3 mg po tid, 6 mg po tid or 10 mg po qam for seven days
Protocol: Phase I Double-Blind, Placebo-Controlled, Multiple Dose Evaluation of Test Compound in Calorically Restricted, Obese Men and Women
A total of 48 obese subjects, with a negative exercise tolerance test and without significant other medical problems, were recruited for this study and placed on a caloric-restricted diet. Subjects were randomized to either placebo, 3 mg po tid, 6 mg po tid or 10 mg po qam of the test compound, 2-amino-N-[2-(3a-(R)-benzyl-2-methyl-3-oxo-2,3,3a,4,6,7-hexahydro-pyrazolo[4,3-c]pyridin-5-yl)-1-(R)-benzyloxymethyl-2-oxo-ethyl]-isobutyramide, L-tartrate, for a total of seven days.
The primary efficacy outcome variable of this study was urinary nitrogen excretion. Breakdown of protein (protein catabolism) may be measured by urinary nitrogen excretion. The covariates determined in this study included: 1.) gender; 2.) serum total and free testosterone; and 3.) serum total and free estradiol.

Compound: CN1N=C2CCN(C(=O)[C@@H](COCc3ccccc3)NC(=O)C(C)(C)N)C[C@@]2(Cc2ccccc2)C1=O.O=C(O)C(O)C(O)C(=O)O [test compound, 2-amino-N-[2-(3a-(R)-benzyl-2-methyl-3-oxo-2,3,3a,4,6,7-hexahydro-pyrazolo[4,3-c]pyridin-5-yl)-1-(R)-benzyloxymethyl-2-oxo-ethyl]-isobutyramide, L-tartrate]
- effect on urinary nitrogen (excretion) (men): manifest in men
- effect on urinary nitrogen (excretion) (women): modest effects of treatment in women

— patent publication US20030199514A1, “Methods for improving efficacy of treatment with growth hormone secretagogues” (priority 2002, published 2003)
